In brackets after ≈: the same amount, converted by molar mass.
Assays:
[1] = test system: Mycobacterium tuberculosis; experiment: Antimycobacterial activity against Mycobacterium tuberculosis H37Rv assessed as bacterial growth inhibition incubated for 7 days by MABA assay; assay type: functional; conditions: 168 h, time 7 day
[2] = Metabolic stability in pooled mouse hepatocytes assessed as parent compound remaining after 30 mins; assay type: ADME, cell-based, Hepatocyte; conditions: read-out: Stabilty
[3] = Metabolic Stability in pooled human hepatocytes assessed as parent compound remaining after 30 mins; assay type: ADME, cell-based, Hepatocyte; conditions: read-out: Stabilty
Vero = experiment: Cytotoxicity against African green monkey Vero cells assessed as reduction in cell viability after 48 hrs by MTT assay; assay type: cell-based; conditions: Chlorocebus sabaeus
[4] = Metabolic stability in pooled mouse hepatocytes assessed as half life; assay type: ADME, cell-based, Hepatocyte
[5] = Metabolic stability in pooled human hepatocytes assessed as half life; assay type: ADME, cell-based, Hepatocyte
[6] = Toxicity in BALB/c mouse infected with Mycobacterium tuberculosis H37Rv assessed as body weight at 25 mg/kg, po via gavage administered for 3 weeks starting from day 10 post infection and administered 5 times a week (reference value: 24.59 +/- 0.61 g); assay type: organism-based; conditions: in vivo, 504 h
[7] = test system: Mycobacterium tuberculosis; experiment: (§1) Antimycobacterial activity against Mycobacterium tuberculosis H37Rv infected in BALB/c mouse model of acute tuberculosis infection assessed as log change in bacterial burden in mouse lung at 25 mg/kg, po via gavage administered for 3 weeks starting from day 10 post infection and administered 5 times a week (reference value: 4.94=+/-0.06 1og10CFU); assay type: functional
[8] = Solubility of the compound in water measured after 20 mins by HPLC analysis; assay type: physicochemical
[9] = Toxicity in BALB/c mouse infected with Mycobacterium tuberculosis H37Rv assessed as body weight at 100 mg/kg, po via gavage administered for 3 weeks starting from day 10 post infection and administered 5 times a week (reference value: 24.59 +/- 0.61 g); assay type: organism-based; conditions: in vivo, 504 h
[10] = test system: Mycobacterium tuberculosis; experiment: as §1, with “100” for “25”, “4.94 +/-0.06” for “4.94=+/-0.06”; assay type: functional

| Compound | MIC [1] [µg/mL] | remaining at 0.5 h [2] [%] | remaining at 0.5 h [3] [%] | IC50 (Vero) [µg/mL] | half-life [4] [min] | half-life [5] [min] | other results |
| --- | --- | --- | --- | --- | --- | --- | --- |
| O=C(NC1CCC(CN2CCN(c3cc(=O)c4cc(C(F)(F)F)cc([N+](=O)[O-])c4s3)CC2)CC1)c1ccccc1 (centres undefined) | 0.244 (≈ 0.425 µM) | 90.6 | 92.9 | 44.3 (≈ 77.1 µM) | > 93.2 | > 93.2 | – |
| CC(C)S(=O)(=O)OC1CCC(CN2CCN(c3cc(=O)c4cc(C(F)(F)F)cc([N+](=O)[O-])c4s3)CC2)CC1 (centres undefined) | < 0.016 | – | – | > 64 | – | – | – |
| CC(=O)NC1CCC(CN2CCN(c3cc(=O)c4cc(C(F)(F)F)cc([N+](=O)[O-])c4s3)CC2)CC1 (centres undefined) | 4.71 (≈ 9.19 µM) | 94.9 | 86.8 | > 64 | > 93.2 | > 93.2 | – |
| O=C(OC1CCC(CN2CCN(c3cc(=O)c4cc(C(F)(F)F)cc([N+](=O)[O-])c4s3)CC2)CC1)c1cccc(F)c1 (centres undefined) | < 0.016 | – | – | > 64 | – | – | – |
| NNC(=O)c1ccncc1 [ISONIAZID] | 0.039 (≈ 0.284 µM) | – | – | – | – | – | Activity [6]: 24.66 g; Activity [7]: 130 log10CFU |
| O=C(OC1CCC(CN2CCN(c3cc(=O)c4cc(C(F)(F)F)cc([N+](=O)[O-])c4s3)CC2)CC1)c1cccc(C(F)(F)F)c1 (centres undefined) | < 0.016 | – | – | > 64 | – | – | – |
| CC(=O)OC1CCC(CN2CCN(c3cc(=O)c4cc(C(F)(F)F)cc([N+](=O)[O-])c4s3)CC2)CC1 (centres undefined) | < 0.016 | 0 | 0 | > 64 | < 9 | < 9 | – |
| NC1CCC(CN2CCN(c3cc(=O)c4cc(C(F)(F)F)cc([N+](=O)[O-])c4s3)CC2)CC1 (centres undefined) | 0.49 (≈ 1.04 µM) | 107 | 83.6 | – | – | – | solubility at 20 min [8]: 43.9 µg/mL (≈ 93.3 µM) |
| COc1ccccc1C(=O)OC1CCC(CN2CCN(c3cc(=O)c4cc(C(F)(F)F)cc([N+](=O)[O-])c4s3)CC2)CC1 (centres undefined) | 0.031 (≈ 0.0512 µM) | – | – | > 64 | – | – | – |
| O=C(OC1CCC(CN2CCN(c3cc(=O)c4cc(C(F)(F)F)cc([N+](=O)[O-])c4s3)CC2)CC1)c1ccc2ccccc2c1 (centres undefined) | 0.03 (≈ 0.0479 µM) | – | – | > 64 | – | – | – |
| O=c1cc(N2CCN(CC3CCCCC3)CC2)sc2c(NO)cc(C(F)(F)F)cc12 | 0.244 (≈ 0.553 µM) | 47.8 | 19.1 | – | – | – | – |
| Nc1cc(C(F)(F)F)cc2c(=O)cc(N3CCN(CC4CCC(O)CC4)CC3)sc12 (centres undefined) | > 32 | 60 | 72.9 | – | – | – | – |
| COc1cccc(C(=O)OC2CCC(CN3CCN(c4cc(=O)c5cc(C(F)(F)F)cc([N+](=O)[O-])c5s4)CC3)CC2)c1 (centres undefined) | < 0.016 | – | – | > 64 | – | – | – |
| COP(=O)(NC1CCC(CN2CCN(c3cc(=O)c4cc(C(F)(F)F)cc([N+](=O)[O-])c4s3)CC2)CC1)OC (centres undefined) | 3.15 (≈ 5.45 µM) | – | – | > 64 | – | – | – |
| O=c1cc(N2CCN(CC3CCC(NP(=O)(Oc4ccccc4)Oc4ccccc4)CC3)CC2)sc2c([N+](=O)[O-])cc(C(F)(F)F)cc12 (centres undefined) | 0.076 (≈ 0.108 µM) | 66.1 | 74.1 | > 64 | 50.2 | 69.2 | – |
| O=C(OC1CCC(CN2CCN(c3cc(=O)c4cc(C(F)(F)F)cc([N+](=O)[O-])c4s3)CC2)CC1)C1CCC1 (centres undefined) | 0.028 (≈ 0.0506 µM) | – | – | > 64 | – | – | – |
| O=c1cc(N2CCN(CC3CCCCC3)CC2)sc2c([N+](=O)[O-])cc(C(F)(F)F)cc12 | < 0.016 | 80.6 | 82.4 | – | – | – | solubility at 20 min [8]: < 0.1 µg/mL |
| O=C(OC1CCC(CN2CCN(c3cc(=O)c4cc(C(F)(F)F)cc([N+](=O)[O-])c4s3)CC2)CC1)c1ccccc1 (centres undefined) | < 0.016 | 68.1 | 56.4 | > 64 | 54.2 | 36.2 | – |
| CC(C)C(=O)OC1CCC(CN2CCN(c3cc(=O)c4cc(C(F)(F)F)cc([N+](=O)[O-])c4s3)CC2)CC1 (centres undefined) | < 0.016 | – | – | > 64 | – | – | – |
| O=C(OC1CCC(CN2CCN(c3cc(=O)c4cc(C(F)(F)F)cc([N+](=O)[O-])c4s3)CC2)CC1)c1ccc(C(F)(F)F)cc1 (centres undefined) | < 0.016 | 28.8 | 5.2 | > 64 | 16.7 | 7 | – |
| O=c1cc(N2CCN(CC3CCC(OS(=O)(=O)c4cccnc4)CC3)CC2)sc2c([N+](=O)[O-])cc(C(F)(F)F)cc12 (centres undefined) | < 0.016 | – | – | > 64 | – | – | – |

| Compound | MIC [1] [µg/mL] | remaining at 0.5 h [2] [%] | remaining at 0.5 h [3] [%] | IC50 (Vero) [µg/mL] | half-life [4] [min] | half-life [5] [min] | other results |
| --- | --- | --- | --- | --- | --- | --- | --- |
| O=C(OC1CCC(CN2CCN(c3cc(=O)c4cc(C(F)(F)F)cc([N+](=O)[O-])c4s3)CC2)CC1)c1ccco1 (centres undefined) | < 0.016 | 0.6 | 1 | > 64 | < 4.5 | 4.5 | – |
| CS(=O)(=O)OC1CCC(CN2CCN(c3cc(=O)c4cc(C(F)(F)F)cc([N+](=O)[O-])c4s3)CC2)CC1 (centres undefined) | < 0.016 | – | – | > 64 | – | – | – |
| COc1ccc(C(=O)OC2CCC(CN3CCN(c4cc(=O)c5cc(C(F)(F)F)cc([N+](=O)[O-])c5s4)CC3)CC2)cc1 (centres undefined) | 0.121 (≈ 0.2 µM) | 31 | 12.2 | > 64 | 17.7 | 9.9 | – |
| C=CC(=O)OC1CCC(CN2CCN(c3cc(=O)c4cc(C(F)(F)F)cc([N+](=O)[O-])c4s3)CC2)CC1 (centres undefined) | 0.035 (≈ 0.0666 µM) | – | – | > 64 | – | – | – |
| O=C(OC1CCC(CN2CCN(c3cc(=O)c4cc(C(F)(F)F)cc([N+](=O)[O-])c4s3)CC2)CC1)c1ccncc1 (centres undefined) | < 0.016 | 1.4 | 1 | > 64 | 4.9 | 4.5 | – |
| O=C(OC1CCC(CN2CCN(c3cc(=O)c4cc(C(F)(F)F)cc([N+](=O)[O-])c4s3)CC2)CC1)C1CCCCC1 (centres undefined) | < 0.016 | 1.2 | 2.8 | > 64 | 4.7 | 5.8 | – |
| O=c1cc(N2CCN(CC3CCC(NS(=O)(=O)c4ccccc4)CC3)CC2)sc2c([N+](=O)[O-])cc(C(F)(F)F)cc12 (centres undefined) | 0.107 (≈ 0.175 µM) | 95.3 | 90.8 | > 64 | > 93.2 | > 93.2 | – |
| CS(=O)(=O)NC1CCC(CN2CCN(c3cc(=O)c4cc(C(F)(F)F)cc([N+](=O)[O-])c4s3)CC2)CC1 (centres undefined) | > 32 | 111 | 105 | 48.4 (≈ 88.3 µM) | > 93.2 | > 93.2 | – |
| O=c1cc(N2CCN(CC3CCC(O)CC3)CC2)sc2c([N+](=O)[O-])cc(C(F)(F)F)cc12 (centres undefined) | 0.069 (≈ 0.146 µM) | 51.2 | 72.7 | – | – | – | solubility at 20 min [8]: 8.3 µg/mL (≈ 17.6 µM); Activity [9]: 24.75 g; Activity [10]: 4.06 log10CFU |
| O=c1cc(N2CCN(CC3CCC(OS(=O)(=O)c4ccc5c(c4)CCO5)CC3)CC2)sc2c([N+](=O)[O-])cc(C(F)(F)F)cc12 (centres undefined) | < 0.016 | – | – | > 64 | – | – | – |
| O=c1cc(N2CCN(CC3CCC(OS(=O)(=O)c4ccccc4)CC3)CC2)sc2c([N+](=O)[O-])cc(C(F)(F)F)cc12 (centres undefined) | < 0.016 | – | – | > 64 | – | – | – |
| Cc1cccc(C(=O)OC2CCC(CN3CCN(c4cc(=O)c5cc(C(F)(F)F)cc([N+](=O)[O-])c5s4)CC3)CC2)c1 (centres undefined) | < 0.016 | – | – | > 64 | – | – | – |
| Cc1ccc(C(=O)OC2CCC(CN3CCN(c4cc(=O)c5cc(C(F)(F)F)cc([N+](=O)[O-])c5s4)CC3)CC2)cc1 (centres undefined) | 0.031 (≈ 0.0526 µM) | 18 | 9.7 | > 64 | 12.1 | 8.9 | – |
| CO[C@H]1/C=C/O[C@@]2(C)Oc3c(C)c(O)c4c(O)c(c(/C=N/N5CCN(C)CC5)c(O)c4c3C2=O)NC(=O)/C(C)=C\C=C\[C@H](C)[C@H](O)[C@@H](C)[C@@H](O)[C@@H](C)[C@H](OC(C)=O)[C@@H]1C [RIFAMPIN] | 0.025 (≈ 0.0304 µM) | – | – | > 64 | – | – | – |
| O=C(OC1CCC(CN2CCN(c3cc(=O)c4cc(C(F)(F)F)cc([N+](=O)[O-])c4s3)CC2)CC1)c1ccc2c(c1)OCC2 (centres undefined) | 0.179 (≈ 0.29 µM) | – | – | > 64 | – | – | – |
| O=c1cc(N2CCN(CC3CCC(OS(=O)(=O)c4ccc5ccccc5c4)CC3)CC2)sc2c([N+](=O)[O-])cc(C(F)(F)F)cc12 (centres undefined) | < 0.016 | – | – | > 64 | – | – | – |
| CCCC(=O)OC1CCC(CN2CCN(c3cc(=O)c4cc(C(F)(F)F)cc([N+](=O)[O-])c4s3)CC2)CC1 (centres undefined) | < 0.016 | – | – | > 64 | – | – | – |
| O=C(OC1CCC(CN2CCN(c3cc(=O)c4cc(C(F)(F)F)cc([N+](=O)[O-])c4s3)CC2)CC1)c1cccs1 (centres undefined) | < 0.016 | 1.8 | 2.2 | > 64 | 5.2 | 5.5 | – |
| Nc1cc(C(F)(F)F)cc2c(=O)cc(N3CCN(CC4CCCCC4)CC3)sc12 | 12.7 (≈ 29.8 µM) | 69.4 | 0.9 | – | – | – | – |
| O=C(OC1CCC(CN2CCN(c3cc(=O)c4cc(C(F)(F)F)cc([N+](=O)[O-])c4s3)CC2)CC1)c1ccc(F)cc1 (centres undefined) | < 0.016 | 1.5 | 3 | > 64 | 4.9 | 5.9 | – |
